According to ChEMBL document CHEMBL1201862, “PubChem BioAssay data set” (2004):
Calls of active or inactive are those of the source.

What was measured:
[1] = molecular target: T1, Heat shock factor protein 1 (Mus musculus, UniProt P38532); assay: inhibition of MG132-induced HSE-luciferase signal, confirmation, cell-based, NIH3T3, luminescence, dose retest (AID 2382); type: functional;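 note: NIH3T3 fibroblasts with HSF1-driven luciferase reporter stressed by proteasome inhibitor MG132; luminescence from HSF1-driven luciferase expression after 8 hours of MG132 stress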
T1 sequence (P38532 whole entry): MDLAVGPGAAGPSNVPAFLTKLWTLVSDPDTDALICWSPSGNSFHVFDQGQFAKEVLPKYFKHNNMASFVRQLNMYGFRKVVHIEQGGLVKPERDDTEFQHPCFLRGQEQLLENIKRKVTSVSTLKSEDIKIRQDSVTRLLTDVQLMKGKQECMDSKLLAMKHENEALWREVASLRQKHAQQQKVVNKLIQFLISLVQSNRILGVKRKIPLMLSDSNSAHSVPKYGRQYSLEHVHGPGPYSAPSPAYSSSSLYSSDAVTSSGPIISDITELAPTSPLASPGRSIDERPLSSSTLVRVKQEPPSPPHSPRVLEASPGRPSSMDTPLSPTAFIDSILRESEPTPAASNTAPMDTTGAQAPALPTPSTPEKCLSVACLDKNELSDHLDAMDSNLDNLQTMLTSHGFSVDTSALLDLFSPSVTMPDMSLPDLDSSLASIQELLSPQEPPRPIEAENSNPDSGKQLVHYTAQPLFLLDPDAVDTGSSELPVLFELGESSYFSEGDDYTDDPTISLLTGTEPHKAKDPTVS

[2] = molecular target: Cytochrome P450 2C19 (Homo sapiens, UniProt P33261); assay: Cytochrome panel assay with activity outcomes. Panel member name: p450-cyp2c19 Compounds with AC50 equal or less than 10 uM are considered active; type: functional; settings: read-out: AC50
[3] = molecular target: Cytochrome P450 2C9 (Homo sapiens, UniProt P11712)
[4] = molecular target: T1, Heat shock factor protein 1; assay: HSF1 potentiators in luciferase reporter cells, confirmation, cell-based, NIH3T3, luminescence, dose retest (AID 435004); type: functional;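 note: stress induced by proteasome inhibitor MG132 added 30 min after compound; luciferase reporter driven by HSF1 response element in NIH3T3 cells; actives raise luminescence as potentiators of the MG132 stress response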
[5] = inhibitors of intracellular T. cruzi replication, confirmation, NIH3T3 host cells, beta-gal luminescence (AID 2044); type: functional, cell-based;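 note: intracellular parasites grown in NIH/3T3 mouse fibroblasts as host cells; luminescent beta-galactosidase reporter signal from transgenic T. cruzi replicating inside host cells; inhibitors lower the luminescence signal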
[6] = cytotoxicity toward NIH3T3 fibroblasts, dose response, counter-screen, cell-based, ATP luminescence, mouse fibroblasts (AID 2010); type: functional;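 note: cells exposed to compound for about 90 hours before reading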
[7] = molecular target: Cytochrome P450 3A4 (Homo sapiens, UniProt P08684);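 note: CYP3A4 tested as one member of a cytochrome P450 panel screen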
Sequence of Cytochrome P450 3A4 (P08684 whole entry): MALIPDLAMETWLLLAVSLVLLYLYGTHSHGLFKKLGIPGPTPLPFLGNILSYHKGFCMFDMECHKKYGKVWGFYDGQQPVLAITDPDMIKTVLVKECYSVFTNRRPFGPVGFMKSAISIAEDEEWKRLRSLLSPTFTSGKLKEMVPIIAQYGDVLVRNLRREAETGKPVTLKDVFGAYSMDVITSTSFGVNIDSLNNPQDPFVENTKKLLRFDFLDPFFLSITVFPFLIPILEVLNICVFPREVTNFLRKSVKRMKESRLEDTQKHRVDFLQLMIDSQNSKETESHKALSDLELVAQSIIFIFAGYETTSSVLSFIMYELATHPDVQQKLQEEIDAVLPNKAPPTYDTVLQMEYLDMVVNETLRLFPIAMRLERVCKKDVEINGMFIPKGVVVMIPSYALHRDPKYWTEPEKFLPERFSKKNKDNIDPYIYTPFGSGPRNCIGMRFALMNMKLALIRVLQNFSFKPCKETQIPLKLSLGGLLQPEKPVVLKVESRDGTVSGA

Sequence of Cytochrome P450 2C19 (P33261 whole entry): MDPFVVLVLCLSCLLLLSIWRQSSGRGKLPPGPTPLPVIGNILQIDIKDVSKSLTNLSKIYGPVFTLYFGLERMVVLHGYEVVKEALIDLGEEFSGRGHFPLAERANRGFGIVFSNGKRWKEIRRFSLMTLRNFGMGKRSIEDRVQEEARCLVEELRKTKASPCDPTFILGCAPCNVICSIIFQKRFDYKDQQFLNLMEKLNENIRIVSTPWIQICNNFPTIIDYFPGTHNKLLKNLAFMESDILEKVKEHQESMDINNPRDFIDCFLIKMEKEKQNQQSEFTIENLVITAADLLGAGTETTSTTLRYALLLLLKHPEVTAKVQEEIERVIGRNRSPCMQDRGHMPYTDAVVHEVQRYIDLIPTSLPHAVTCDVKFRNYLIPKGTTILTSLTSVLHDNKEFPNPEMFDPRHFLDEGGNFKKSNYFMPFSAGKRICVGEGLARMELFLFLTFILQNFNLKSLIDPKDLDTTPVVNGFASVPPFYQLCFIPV
Sequence of Cytochrome P450 2C9 (P11712 whole entry): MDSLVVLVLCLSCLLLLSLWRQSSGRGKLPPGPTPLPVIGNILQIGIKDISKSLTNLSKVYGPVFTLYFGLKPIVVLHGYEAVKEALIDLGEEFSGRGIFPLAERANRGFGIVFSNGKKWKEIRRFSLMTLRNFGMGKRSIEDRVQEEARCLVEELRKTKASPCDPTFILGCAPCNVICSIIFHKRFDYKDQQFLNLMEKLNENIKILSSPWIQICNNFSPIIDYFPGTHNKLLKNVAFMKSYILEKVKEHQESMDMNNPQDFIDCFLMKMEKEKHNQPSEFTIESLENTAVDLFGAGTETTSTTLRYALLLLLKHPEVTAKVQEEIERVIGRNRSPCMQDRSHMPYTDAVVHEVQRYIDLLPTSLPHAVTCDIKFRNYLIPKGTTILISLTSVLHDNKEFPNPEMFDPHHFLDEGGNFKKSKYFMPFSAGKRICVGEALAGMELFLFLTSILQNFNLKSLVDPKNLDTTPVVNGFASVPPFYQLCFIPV

SMILES	EC50 [1]	AC50 [3]	further results
CCc1n[nH]c2c1C1(CCN(C(=O)OCc3ccccc3)CC1)C(C#N)=C(N)O2			EC50 [4]: 33.9 µM (active)
CSCC[C@H](NC(=O)N1CCn2c1nc1ccccc12)C(=O)NCc1ccc(F)cc1			EC50 [4]: > 260 µM (inactive)
O=C(NCc1ccco1)c1ccccc1-c1ccc(C(F)(F)F)cc1	> 195 µM (not active)		
NC(=O)Cc1ccc2c(c1)[nH]c1ccccc12			EC50 [4]: > 260 µM (inactive)
CCCCOCCCN1CC(=O)N2[C@@H](Cc3c([nH]c4ccccc34)C2(C)C)C1=O			EC50 [4]: > 260 µM (inactive)
C/C(Cl)=C/Cc1c(C)nc2ccc(C)cc2c1O			EC50 [5]: 0.324 µM (active); EC50 [6]: > 30 µM (not active); EC50 [4]: > 260 µM (inactive)
CC(=O)[C@]1(O)CC[C@@H]2[C@H]3C[C@@H](C)C4=CC(=O)CC[C@@]4(C)[C@H]3[C@@H](O)C[C@]21C		7.94 µM (inconclusive)	AC50 [7]: 3.98 µM (inconclusive)
CC(C)[C@@]1(NC(=O)[C@@H]2C[C@H]3c4cccc5[nH]cc(c45)C[C@@H]3N(C)C2)O[C@]2(O)[C@H]3CCCN3C(=O)CN2C1=O		6.31 µM (inconclusive)	AC50 [2]: 5.01 µM (inconclusive)
O=C(NCCc1cccc(Cl)c1)c1cc2ccccc2oc1=O			EC50 [4]: > 260 µM (inactive)
C=CCn1c(S)nnc1-c1cccc2ccccc12	> 195 µM (not active)		
COCCNC(=O)Cn1cnc2c1c(=O)n(C)c(=O)n2C			EC50 [4]: > 260 µM (inactive)
COc1ccccc1CNC(=O)C(C)NS(=O)(=O)c1ccc(Br)cc1 (stereo not drawn)	> 195 µM (not active)		
CCOC(=O)C[n+]1c(C)csc1C	> 195 µM (not active)		
O=C1c2ccccc2C(O)N1c1ccccc1 (stereo not drawn)	> 195 µM (not active)		
Cn1c(=O)c2cn(-c3ccccc3)cc2n(C)c1=O		25.1 µM (inconclusive)	AC50 [2]: 17.8 µM (inconclusive)
CCOC(=O)c1c[nH]nc1C(F)(F)F			EC50 [4]: > 260 µM (inactive)
Cc1oc2ccc(OCc3c(F)cccc3Cl)cc2c1C(=O)O	> 195 µM (not active)		
N/C(S)=N/CCC[C@@H](N)C(=O)O		15.8 µM (inconclusive)	AC50 [7]: 0.2 µM (inconclusive)
COc1ccc(CNC(=O)Oc2ccccc2)cc1Cl			EC50 [4]: 62.3 µM (active)
CCN(CC)S(=O)(=O)c1cccc(C(=O)N[C@H](C(=O)OCC(=O)NC(=O)NC)C(C)C)c1		0.708 µM (inconclusive)	AC50 [7]: 14.1 µM (inconclusive)

The next lines start with results.

EC50 [1]	AC50 [3]	SMILES	further results
> 195 µM (not active)		CCOC(=O)N1CCN(C(=O)C2CCN(Cc3ccc(OC)cc3OC)CC2)CC1	
	20 µM (inconclusive)	CCCn1nc2cc(C(=O)NCc3ccc(C)cc3)ccc2c1OC	AC50 [2]: 22.4 µM (inconclusive)
> 195 µM (not active)		CS(=O)(=O)c1ccc(NC(=O)c2ccc3c(c2)S(=O)(=O)N=C2CCCCCN23)cc1	
> 195 µM (not active)		Cc1ccc(N2C(=O)N(CC(=O)NC(N)=O)C(=O)C2C)cc1 (stereo not drawn)	
	10 µM (inconclusive)	O=C(CCn1nc(-c2ccc(Cl)cc2)ccc1=O)N1CCOCC1	AC50 [7]: 25.1 µM (inconclusive)
	12.6 µM (inconclusive)	CC(C)c1ccc(C(=O)CC2(O)C(=O)N(CN3CCOCC3)c3ccccc32)cc1 (stereo not drawn)	
19.9 µM (active)		COc1cccc(C(=O)c2c[nH]c(C(=O)NCc3ccco3)c2)c1	
> 195 µM (not active)		O=C(Cn1nc(-c2ccccc2)ccc1=O)N1CCCCC1	
	31.6 µM (inconclusive)	CC[C@H]1C2=C3C(CC[C@H]4C(OCc5ccc(F)cc5C(F)(F)F)OC[C@](C)([C@@H]34)N(C(=O)OC(C)(C)C)C2)C(COC(C)=O)C1COC(C)=O (stereo partly drawn)	AC50 [2]: 15.8 µM (inconclusive); AC50 [7]: 2.51 µM (inconclusive)
> 195 µM (not active)		O=C(Cn1cc([N+](=O)[O-])cn1)NCC1CCCO1 (stereo not drawn)	
> 195 µM (not active)		C=CCNC(=S)Nc1sc2c(c1C#N)CCCC2	
	11.2 µM (inconclusive)	N#Cc1cnn2c(=O)c3c([nH]c12)CCCC3	
